In the NIST ThermoML archive (doi:10.1016/j.jct.2016.12.029):

Details: Gas, Buoyancy - hydrostatic balance with magnetic suspension - one sinker

C=C(F)C(F)(F)F [2,3,3,3-tetrafluoro-1-propene]
Details	mass density [kg/m3]
265.46 K, 101.2 kPa	5.404
265.48 K, 207.2 kPa	11.507
270.36 K, 101 kPa	5.279
270.38 K, 164.6 kPa	8.792
270.38 K, 250.3 kPa	13.798
275.39 K, 106.2 kPa	5.448
275.4 K, 208.6 kPa	11.064
275.42 K, 303.7 kPa	16.657
280.28 K, 103.6 kPa	5.208
280.29 K, 176.6 kPa	9.076
280.29 K, 274 kPa	14.527
280.29 K, 356.2 kPa	19.43
285.27 K, 258.8 kPa	13.34
285.28 K, 104.7 kPa	5.162
285.28 K, 164.2 kPa	8.23
285.28 K, 358.5 kPa	19.078
290.38 K, 102.2 kPa	4.937
290.39 K, 184.5 kPa	9.113
290.4 K, 308.8 kPa	15.792
290.4 K, 421.2 kPa	22.298
295.4 K, 101.7 kPa	4.829
295.4 K, 196.9 kPa	9.565
295.4 K, 400.6 kPa	20.565
295.4 K, 600.7 kPa	32.885
295.41 K, 305.3 kPa	15.255
295.41 K, 510.2 kPa	27.092
300.2 K, 668.8 kPa	36.434
300.21 K, 108 kPa	5.039
300.21 K, 218.9 kPa	10.489
300.21 K, 324 kPa	15.933
300.21 K, 439.4 kPa	22.291
300.21 K, 545.8 kPa	28.564
